Test results: ChEMBL document CHEMBL1141280, “Hirtusneanoside, an unsymmetrical dimeric tetrahydroxanthone from the lichen Usnea hirta” (2007)

Key:
Staphylococcus aureus = assay: Antibacterial activity against Staphylococcus aureus; type: functional; conditions: read-out: LD50 (the source's name)
Bacillus subtilis = assay: Antibacterial activity against Bacillus subtilis; type: functional; conditions: read-out: LD50 (the source's name)

In the case of COC(=O)[C@@]12Oc3cc(C)c(-c4c(C)cc5c(c4O)C(=O)C4=C(O)C[C@@H](C)[C@@H](O)[C@@]4(CO[C@@H]4O[C@@H](C)[C@H](O)[C@@H](O)[C@H]4O)O5)c(O)c3C(=O)C1=C(O)[C@H](C)[C@@H](C)[C@@H]2O [HIRTUSNEANOSIDE], the LC50 (Staphylococcus aureus) is reported as 3.4 nM and the LC50 (Bacillus subtilis) is reported as 14 nM.
